# Reference: patent US6703049B2, “Angiogenesis inhibitor” (priority 2000, dated 2004)
# Where two headings read alike, the source gives them in different places.
# What was measured:
# [1] = tested on: bovine capillary endothelial (BCE) cells; assay: Endothelial cell proliferation assay (bFGF-stimulated); assay type: cell-based
# Protocol: Male Sprague-Dawley rats weighing 200 g were used as an experimental animal. Arsenolite (solid As4O6) was dissolved in water until it becomes a 1 mM of stock solution, and kept at the room temperature. Bovine capillary endothelial (BCE) cells were provided by Dr. Tae-Hee Lee (Lee, T. H., Rhim, T., and Kim, S. S. (1998). Prothromb inkringle-2 domain has a growth inhibitory activity against basic fibroblast growth factor-stimulated capillary endothelial cells. J. Biol. Chem 273, 28805-28812). BCE cells were preserved in Dulbecco's modified Eagle's medium (DMEM) supplemented with 10% heat-inactivated bovine calf serum (BCS; Hyclone Laboratories, Logan, Utah) L-glutamine (2 mM), penicillin (110 units/ml), streptomycin (100 μg/ml) and 1.5 ng/ml recombinant human basic fibroblast growth factor (bFGF; R&D Systems, Minneapolis, Minn.). Then, the cells were incubated at 37° C. under 10% CO2 condition. The cells between 10-15 passages were employed in this experiment.
# Endothelial proliferation assay was performed as described by Cao et al. (Cao, Y., A., An, S. S. A., Ji, R. W., Davodson, D., Cao, Y., and Llinas, M. (1997) Kringle 5 of plasminogen is a novel inhibitor for endothelial cell growth. J. Biol. Chem. 271, 22924-22928). […] After 72 hours of incubation, the cells were trypsinized and counted using a hemocytometer. […]
# [2] = Tolerability of treated rats in the corneal micropocket study; assay type: in vivo, Sprague Dawley rat; settings: oral, 50 mg/kg/day for 7 days
# Protocol: To further investigate the antiangiogenic activity of arsenolite in vivo, the inhibitory effect of systematically administered arsenolite on bFGF-induced neovascularization was studied. The corneal micropocket assay was performed by slight modification of a reported procedure (Polverim P J, Bouck N P, Rastinejad F. Assay and purification of naturally occurring inhibitor of angiogenesis, Methods Enzymol. 1991; 198: 440-450). That is, rats were anesthetized with ketamine. A corneal pocket was made by inserting a cataract knife, with the pocket's base 1-1.5 mm from the limbus. […] The corneal neovascularization in both eyes of all animals were examined daily with a slit lamp and the angiogenic responses were evaluated on day 7. The area of conical neovascularization was determined by measuring with a reticule the vessel length (L) from the limbus and the number of clock hours (C) of limbus involved as previously reported (D'Amato R I, Loughnan M S, Flynn E, Foulkman J, Thalidomide is an inhibitor of angiogenesis. Proc Natl Acad Sci USA Apr. 26, 1994; 91(9):4082-5). A formula was used to determine the area of a circular band segment: C/12×3.1416[r^2−(rL)^2], where r=5 mm, the measured radius of rat cornea. […]
# BCE cells = assay: Tube formation assay in 3-D fibrin gel culture; assay type: cell-based, bovine; settings: 100 nM, bFGF 10 ng/ml, 48 or 96 hours
# Protocol: To investigate the effect of arsenolite on the maturation of angiogenesis, particularly, tubular structure formation of capillary endothelial cells, BCE cells were cultured using three dimensional cultures on the fibrin gel.
# Fibrin gels were prepared by following a reported procedure (Bastaki M, Nelli E E, Dell'Era P, Rusnati M, Molinari-Tosatti M P, Parolini S, Auerbach R, Ruco L P, Possati L, Presta M, Basic fibrolast growth factor-induced angiogenic phenotype in mouse endothelium. A study of aortic and microvascular endothelial cell lines. Arterioscler Thromb Vasc Bio March 1997; 17(3): 454-64). Briefly, 2.5 mg/ml of fibrinogen (Calbiochem, San Diego, Calif.) was dissolved in DMEM and cultured BCE cells were added to a final concentration of 10^5 cells/ml, and clotting was then initiated by addition of thrombin (0.5 unit/ml). The mixture was immediately transferred into 24-well plates and allowed to form gel for 5 minutes at 37° C. Following get formation, 0.5 ml of medium with or without bFGF (10 ng/ml) and arsenolite (100 nM) per well were added. After 48 or 96 hours, tube formation was examined under inverted microscopy.
# [3] = tested on: bFGF-induced rat corneal neovascularization; assay: Corneal micropocket angiogenesis assay; assay type: in vivo, Sprague Dawley rat; settings: oral; for bFGF-induced corneal neovascularization: 50 mg/kg/day for 7 days
# Protocol: To further investigate the antiangiogenic activity of arsenolite in vivo, the inhibitory effect of systematically administered arsenolite on bFGF-induced neovascularization was studied. The corneal micropocket assay was performed by slight modification of a reported procedure (Polverim P J, Bouck N P, Rastinejad F. Assay and purification of naturally occurring inhibitor of angiogenesis, Methods Enzymol. 1991; 198: 440-450). That is, rats were anesthetized with ketamine. A corneal pocket was made by inserting a cataract knife, with the pocket's base 1-1.5 mm from the limbus. Pellets were made by mixing 30 μl of saline containing 2 μg of recombinant bFGF (R&D Systems, Minneapolis, Minn. U.S.A.) with 300 μg of sucralfate (Sigma, St. Louis, Mo., U.S.A.); this suspension was added to 30 μl of 12% (wt/vol) poly (2-hydroxyethyl methacylate) (Sigma, St. Louis, Mo., U.S.A.) in ethanol. Aliquots of this mixture were then pined onto Teflon pegs and allowed to dry producing approximately 17 pellets so that each pellet contains approximately 100 ng of bFGF. A pellet was implanted into corneal micropockets of each eye of an anesthetized male Sprague Dawley rat, followed by a single topical application of erythromycin ointment on the surface of the cornea. The animals were fed daily from the day of implantation by gastric lavage with 50 mg/kg of arsenolite powder for the treatment group, and the same foods and water without arsenolite for the control group. The corneal neovascularization in both eyes of all animals were examined daily with a slit lamp and the angiogenic responses were evaluated on day 7. The area of conical neovascularization was determined by measuring with a reticule the vessel length (L) from the limbus and the number of clock hours (C) of limbus involved as previously reported (D'Amato R I, Loughnan M S, Flynn E, Foulkman J, Thalidomide is an inhibitor of angiogenesis. Proc Natl Acad Sci USA Apr. 26, 1994; 91(9):4082-5). A formula was used to determine the area of a circular band segment: C/12×3.1416[r^2−(rL)^2], where r=5 mm, the measured radius of rat cornea.
# [4] = tested on: bovine capillary endothelial (BCE) cells; assay: Chemotaxis assay in modified Boyden chambers (bFGF as chemoattractant); assay type: cell-based
# Protocol: Chemotaxis assays were performed using modified Boyden chambers, which is equipped with polycarbonate nucleopore membrane (Boyden Chamber, Corning, Coring, N.Y.) described in Journal (Veronique Rigot, Maxime Lehmann, Frederic andre, Noucha Daemi, Jacques Marvaldi and Jose Luis: Integrin ligation and PKC activation are required for migration of colon carcinoma cells. Journal of cell science 111, 3119-3129 (1998)). Pre-coated filters (6.5 mm in diameter, 8 μm pore-size, Matrigel 100 μg/cm^2) were re-hydrated with 250 μl of medium, and 1×10^5 cells in 200 μl medium with or without arsenolite (at concentrations of 10 nM, 20 nM, 50 nM, 100 nM and 200 nM) in triple respectively were seeded into the upper part of each chamber, whereas the lower compartment was filled with 200 μl of serum free DMEM supplemented with 0.1% BSA and with (positive control) or without (negative control) 10 ng/ml bFGF as a chemoattractant. After the cells were incubated at 37° C. for 72 hours, non-migrated cells on the upper surface of the filter were wiped with a cotton swab, and migrated cells on the lower surface of the filter were fixed and stained with 0.125% Cumassie Blue in a mixture of methanol: acetic acid: water at the ratio of 45:10:45 by volume. Chemotaxis was determined by counting cells in five microscopic fields per well, and the extent of migration is expressed as an average number of cells per each microscopic field.
# [5] = 28-day oral administration toxicity in rat; assay type: in vivo, Sprague Dawley rat
# [6] = oral administration; cited from earlier work
Compound,"IC50 ([1]; 3 ng/ml bFGF, 72 hours incubation, cell count, read-out: inhibition of BCE cell proliferation, IC50)","cell morphological changes associated with apoptotic endothelial cells (detachment, rounding, fragmentation) ([1]; after a 3-day incubation, 10 to 200 nM)",weight loss or unusual behavior over the course of the treatment [2],generation of tubes by BCE cells (BCE cells),bFGF-induced corneal neovascularization [3],bFGF-induced corneal neovascularization ([3]; listed as angiogenesis inhibitor of the present invention),"density of corneal vessels compared with control animals ([3]; 50 mg/kg/day, day 7)","inhibition of clock hours of corneal circumferential neovascularization ([3]; 50 mg/kg/day, day 7)","inhibition of vessel length of corneal neovascularization ([3]; 50 mg/kg/day, day 7)","suppression of area of neovascularization ([3]; 50 mg/kg/day, day 7, area calculated from length and clock hours)","IC50 ([4]; 10 ng/ml bFGF, 72 hours, read-out: inhibition of bFGF-induced invasiveness (chemotaxis), IC50)","inhibition of bFGF-induced invasiveness (chemotaxis) ([4]; at 100 nM, 10 ng/ml bFGF, 72 hours)","cell morphological changes associated with apoptotic endothelial cells (detachment, rounding, fragmentation) ([4]; chemotaxis assay, 10 to 200 nM)",side effect ([5]; oral 1 mg/kg for 28 days),side effect ([5]; oral 10 mg/kg for 28 days),histological alterations in kidney ([5]; oral 100 mg/kg for 28 days),side effect on gastrointestinal and liver ([5]; oral 100 mg/kg for 28 days),side effect on gastrointestinal and liver [6]
"O1[As]2O[As]3O[As]1O[As](O2)O3 [arsenolite, Tetraarsenic oxide]",99 nM,No distinct cell morphological changes,did not experience weight loss or unusual behavior,reduced,significantly inhibited,noticeably suppressed,markedly reduced,more than 60%,more than 60%,approximately 90%,48 nM,83.4%,none of distinct cell morphological changes,none of side effect was observed,none of side effect was observed,only minor histological alterations was observed in kidney,no side affect on gastrointestinal and liver,–
arsenic trioxide,–,–,–,–,–,–,–,–,–,–,–,–,–,–,–,–,–,caused serious side effect on gastrointestinal and liver
